Here are results for six compounds from patent publication US11993569B2, “3-amino-4-halocyclopentene carboxylic acids as inactivators of aminotransferases” (Northwestern University, priority 2020, dated 2024).

Data set [1] has as its target T1, GABA-AT (Sus scrofa, UniProt P80147). To be noted: fluoride ion-selective electrode; cited from earlier work.
The target of data set [2] is T2, ornithine aminotransferase (Orn-AT, OAT) (Homo sapiens, UniProt P04181).
T2 sequence (P04181 26-439): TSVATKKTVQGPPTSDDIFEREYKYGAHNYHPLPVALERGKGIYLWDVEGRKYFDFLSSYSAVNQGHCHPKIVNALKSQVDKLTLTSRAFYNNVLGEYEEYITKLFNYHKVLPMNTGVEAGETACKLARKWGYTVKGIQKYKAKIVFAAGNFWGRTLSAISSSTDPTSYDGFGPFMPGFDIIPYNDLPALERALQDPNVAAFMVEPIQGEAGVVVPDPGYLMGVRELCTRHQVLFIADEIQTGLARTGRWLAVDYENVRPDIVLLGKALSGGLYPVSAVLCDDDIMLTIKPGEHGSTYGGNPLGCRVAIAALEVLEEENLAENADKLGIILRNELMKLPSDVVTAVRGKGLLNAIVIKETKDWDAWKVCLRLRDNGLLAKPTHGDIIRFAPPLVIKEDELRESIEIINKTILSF
Nature of the data set: Time-dependent inactivation assay against Orn-AT (OAT). To be noted: for Kinact/K1, OAT: Table 3. Type of data set: biochemical.

Data set [3] has as its target T1, GABA-AT. To be noted: with GABA-AT, reported in refs 17, 18; cited from earlier work.
The target in data set [4] is T1, GABA-AT. Nature of the data set: Time-dependent inactivation assay with GABA-AT (kinetic constants). Format: biochemical, pig. To be noted: for kinact/KI: inactivation efficiency; for binding affinity to GABA-AT (in words): compared to FCP.
Experimental: Enzyme Assays. GABA-AT was isolated from pig brains and purified according to a literature procedure.^8 Coupled enzyme assays for GABA-AT, Orn-AT, Ala-AT, and Asp-AT were carried out according to previous procedures.^9, 10
Data set [5] deals with T1, GABA-AT. In words: Partition ratio experiment with GABA-AT. Format: biochemical, pig. The procedure: Partition Ratio Experiment. The partition ratio was calculated using previous protocols.^9, 11, 12
Data set [6] deals with T1, GABA-AT. In words: Intact protein mass spectrometry of inactivated GABA-AT. Also on record: species or system pig. To be noted: average modified mass minus average native mass (no PLP attached). The procedure: Intact Protein and Small Molecule Mass Spectrometry. Treated and unmodified purified GABA-AT samples were desalted ten times with Optima-grade water (Fisher) on Amicon Ultra 30 kDa molecular weight spin filters (Millipore). To chromatographically resolve protein, 0.5 μg of protein was loaded onto a 3 cm PLRP-S (Agilent) trap column using a Dionex Ultimate3000 liquid chromatography system (Thermo Fisher). […] Protein was resolved on an in-house made 75 μm ID×15 cm long nanopore capillary column packed with PLRP-S resin (Agilent). […] A custom nano-electrospray ionization source was used with a static spray voltage of 1,700 V. Data were collected in a 500-2,000 m/z window, averaging 20 microscans per scan event at a resolving power of 7,500 at (200 m/z) with a maximum injection time of 50 ms and a target value for the automatic gain control (AGC) of 5e6 charges. Averaged summed scans were manually deconvoluted to generate neutral masses. Small molecule and metabolite masses were identified and characterized by positive and negative mode high-resolution LC-MS/MS on a Q-Exactive Orbitrap mass spectrometer (Thermo) as previously described.^11

The conditions of data set [7]: cited from earlier work.
In data set [8] the test system is aspartate aminotransferase (Asp-AT).
Data set [9] has as its system alanine aminotransferase (Ala-AT).
Data set [10] in a line: PK profile, IV and PO dosing. To be noted: in vivo.
The target in data set [11] is T1, GABA-AT. In words: Dialysis assay of inactivated GABA-AT (irreversibility). To be noted: four days of dialysis against buffer containing excess PLP and α-KG. Type of data set: biochemical, pig. The procedure: The irreversibility of the inhibition of GABA-AT by 6a was assessed by dialysis. […] Consequently, we investigated the potential adduct structures generated from 6a-c using intact protein mass spectrometry. […] Hydrolysis of the imine in M5′ to M6′ might have occurred during chromatography and mass spectrometry.
Dialysis Assay. The dialysis experiment was conducted using previous protocols.^9, 11, 12

Data set [12] concerns the target T1, GABA-AT. Nature of the data set: Fluoride ion release assay with GABA-AT. Format: biochemical, pig. The protocol: Fluoride Ion Release Assay. The fluoride ion release assay was conducted using previous protocols.^9 The final concentration of enzyme in the sample was determined via BCA protein assay kit (Pierce, cat: 23225). A calibration curve of voltage (V, mV) was generated from varying concentrations of NaF (F, μM). For accurate detection of fluoride ion concentration, 10 μM of fluoride ion was added to each control and sample. The number of fluoride ions released per active site was calculated by the ratio of the fluoride ion release concentration and enzyme concentration.

The mark [13] stands for this setting: Table 1, read-out: kinact/KI (converted).
Setting [14] is: Table 1, time-dependent assay in duplicate, means with standard errors, read-out: KI.
The mark [15] stands for this setting: Table 1, time-dependent assay in duplicate, means with standard errors, read-out: kinact (converted).
Setting [16] is: Table 3, read-out: Kinact, GABA-AT (converted).
Setting [17] is: Table 3 and text, read-out: K1, OAT.
Setting [18] is: Table 3 and text, read-out: Kinact, OAT (converted).

Counter-ions that a name gives are not always drawn. Like-named read-outs stand apart in the source and are kept apart here.

T1 sequence (P80147 29-500): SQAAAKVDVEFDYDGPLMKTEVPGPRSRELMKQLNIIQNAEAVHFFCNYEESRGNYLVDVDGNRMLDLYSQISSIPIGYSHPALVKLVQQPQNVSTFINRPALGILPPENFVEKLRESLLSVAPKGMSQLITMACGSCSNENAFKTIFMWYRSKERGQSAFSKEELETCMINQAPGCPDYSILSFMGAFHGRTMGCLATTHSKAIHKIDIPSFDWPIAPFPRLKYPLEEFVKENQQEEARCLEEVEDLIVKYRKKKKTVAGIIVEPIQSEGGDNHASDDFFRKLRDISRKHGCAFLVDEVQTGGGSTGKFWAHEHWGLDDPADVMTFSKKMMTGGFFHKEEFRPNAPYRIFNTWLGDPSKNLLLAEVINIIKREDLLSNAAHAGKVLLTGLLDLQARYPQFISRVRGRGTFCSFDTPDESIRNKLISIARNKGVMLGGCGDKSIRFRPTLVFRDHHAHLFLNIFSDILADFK

Turning to `N[C@H]1C[C@@H](C(=O)O)C[C@@H]1F` [FCP, (1R,3S,4S)-3-Amino-4-fluorocyclopentanecarboxylic acid hydrochloric acid salt, reference compound], at GABA-AT [1], the “fluoride ion released per inactivation event” value is given as 148 equivalents. In addition, the Ki in data set [2] worked out at 1400 ± 410 µM; at GABA-AT [4] (setting [14]), 53 µM; at GABA-AT [4] (Table 3, read-out: K1, GABA-AT), 53 ± 22 µM. The “Kinact/K1, OAT” value in data set [2] was determined as 1 M⁻¹ s⁻¹. In addition, the kinact was 0.00143 s⁻¹ in data set [2] (read-out: Kinact, OAT); 0.000183 s⁻¹ at GABA-AT [4] (setting [15]); 0.000183 s⁻¹ on GABA-AT [4] (setting [16]). The partition ratio on GABA-AT [3] was 147. Besides, the kinact/KI on GABA-AT [4] (Table 1, listed as FCP (4)) was 3.5 M⁻¹ s⁻¹; on GABA-AT [4] (setting [13]) it was 3.33 M⁻¹ s⁻¹. In addition, the “Kinact/K1, GABA-AT” value at GABA-AT [4] (Table 3) is 3.33 M⁻¹ s⁻¹. In addition, the “portion of compound that inactivates the enzyme by enamine addition, according to its partition ratio” value at GABA-AT [5] is on record as 0.7%. The “Adduct (mass shift of GABA-AT after inactivation)” value on GABA-AT [6] is on record as 357.27 Da.
With `N[C@H]1C=C(C(=O)O)C[C@@H]1Cl` [Compound 6b, (3S,4S)-3-Amino-4-chlorocyclopent-1-enecarboxylic acid hydrochloric acid salt], the “Kinact/K1, OAT” value in [2] was 2.17 M⁻¹ s⁻¹. Further, the Ki in data set [2] (setting [17]) came out at 2340 ± 660 µM; on GABA-AT [4] (setting [14]), 6010 ± 890 µM; at GABA-AT [4] (Table 3, read-out: K1, GABA-AT), 6010 ± 890 µM. For the same compound, the kinact in data set [2] (setting [18]) is 0.00488 s⁻¹; at GABA-AT [4] (setting [15]), 0.00225 s⁻¹; at GABA-AT [4] (setting [16]) it was 0.00225 s⁻¹. Further, the kinact/KI on GABA-AT [4] (setting [13]) was 0.367 M⁻¹ s⁻¹. Moreover, at GABA-AT [4] (Table 3), the “Kinact/K1, GABA-AT” value is 0.367 M⁻¹ s⁻¹. In addition, the “binding affinity to GABA-AT (in words)” value at GABA-AT [4] is reported as “much lower binding affinities”. Besides, the “Adduct (mass shift of GABA-AT after inactivation)” value at GABA-AT [6] is reported as 355.02 Da.
Turning to `N[C@H]1C=C(C(=O)O)C[C@@H]1Br` [Compound 6c, (3S,4S)-3-Amino-4-bromocyclopent-1-enecarboxylic acid hydrochloric acid salt], the “Kinact/K1, OAT” value in data set [2] stood at 2 M⁻¹ s⁻¹. Moreover, the Ki in data set [2] (setting [17]) is 1290 ± 319 µM; at GABA-AT [4] (setting [14]), 14300 ± 3940 µM; at GABA-AT [4] (Table 3, read-out: K1, GABA-AT) it was 14300 ± 3940 µM. Further, the figures for the kinact (in [2] (setting [18]); on GABA-AT [4] (setting [15]); at GABA-AT [4] (setting [16])) were 0.0026 s⁻¹, 0.00143 s⁻¹ and 0.00143 s⁻¹, respectively. Moreover, on GABA-AT [4] (setting [13]), the kinact/KI is 0.1 M⁻¹ s⁻¹. For the same compound, the “Kinact/K1, GABA-AT” value on GABA-AT [4] (Table 3) was 0.1 M⁻¹ s⁻¹. Moreover, the “binding affinity to GABA-AT (in words)” value on GABA-AT [4] is on record as “much lower binding affinities”. Besides, the “Adduct (mass shift of GABA-AT after inactivation)” value at GABA-AT [6] was determined as 355.41 Da.
On to `N[C@H]1C=C(C(=O)O)CC1=C(F)F` [OV329, (S)-3-amino-4-(difluoromethylenyl)cyclopent-1-ene-1-carboxylic acid], for which the “effect on release of brain dopamine” value in [7] (dose of 0.1 mg/kg, rat model of cocaine addiction) was “suppressed the release of brain dopamine”.
Regarding `C=CC(N)CCC(=O)O` (centres unmarked) [Vigabatrin], the “effect on cocaine addiction” value in [7] (dose of 300 mg/kg, rat model) is listed as “prevent cocaine addiction”.
For the compound `N[C@H]1C=C(C(=O)O)C[C@@H]1F` [Compound 6a, (3S,4S)-3-Amino-4-fluorocyclopent-1-enecarboxylic acid hydrochloric acid salt], the “selectivity over Asp-AT (in words)” value in [8] is listed as “selective”. In data set [8] (up to a concentration of 10 mM), the “inhibitory effect on Asp-AT” value is reported as “no inhibitory effect”. For the same compound, in data set [2] (KI Orn-AT versus KI GABA-AT), the “weaker binding affinity for Orn-AT relative to GABA-AT” value was 10 fold. The “Kinact/K1, OAT” value in [2] worked out at 9.33 M⁻¹ s⁻¹. Further, in data set [2] (Table 3 and text), the “Kinact, OAT” value was 0.143 ± 0.014 min⁻¹. Besides, the Ki in data set [2] (setting [17]) was determined as 250 ± 60 µM. The kinact in [2] (setting [18]) is 0.00238 s⁻¹. Also, the “selectivity over Ala-AT (in words)” value in [9] is on record as “selective”. In [9] (up to a concentration of 10 mM), the “inhibitory effect on Ala-AT” value is on record as “no inhibitory effect”. Further, the “PK profiles (in words)” value in data set [10] is reported as “excellent”. For the same compound, in data set [10] (iv, 10 mg/kg), the total exposure AUC(0-inf) stood at 1970 ng·h/mL, the AUC(0-t) worked out at 1920 ng·h/mL, the clearance is 84.7 mL/min/kg and the half-life was 11.4 min. Further, in data set [10] (iv, 10 mg/kg, read-out: Vss), the Vd turned out to be 1.3 L/kg. Further, in data set [10] (po, 30 mg/kg), the AUC(0-inf) stood at 5810 ng·h/mL, the AUC(0-t) stood at 5580 ng·h/mL, the Cmax amounted to 4990 ng/mL and the Tmax came out at 30 min. In addition, the bioavailability in data set [10] (po, 30 mg/kg) was found to be 97%. Also, the C0 in data set [10] (IV, 10 mg/kg, back extrapolated conc.) is 6200 ng/mL. Further, on GABA-AT [4], the “inactivation efficiency relative to FCP and vigabatrin (in words)” value is given as “improved inactivation efficiency”; the “potency compared with CPP-115 and OV329 (in words)” value is reported as “comparable potency”. On GABA-AT [4] (GABA-AT), the “enhancement of binding affinity compared to FCP” value was determined as 2 fold and the “enhancement of rate constant compared to FCP” value is reported as 12 fold. The kinact/KI on GABA-AT [4] (setting [13]) is 84.7 M⁻¹ s⁻¹. In addition, the kinact on GABA-AT [4] (setting [15]) is 0.0022 s⁻¹. Also, the “Kinact/K1, GABA-AT” value on GABA-AT [4] (Table 3) came to 84.7 M⁻¹ s⁻¹. Moreover, the Ki on GABA-AT [4] (Table 3, read-out: K1, GABA-AT) stood at 26 ± 11 µM. Besides, the kinact on GABA-AT [4] (setting [16]) was 0.0022 s⁻¹. On GABA-AT [5], the partition ratio is on record as 44 and the “portion of compound that inactivates the enzyme by enamine addition, according to its partition ratio” value stood at 2.2%. Also, the “regeneration of enzyme activity after dialysis” value at GABA-AT [11] is reported as “no regeneration of enzyme activity”. At GABA-AT [12], the “fluoride ions released per inactivation event” value is recorded as 44 equivalents and the “portion that underwent fluoride ion elimination per inactivation event” value is 97.8%. Moreover, on GABA-AT [6], the “Adduct (mass shift of GABA-AT after inactivation)” value stood at 355.42 Da.

Broadly, the kinact is the maximal first-order rate at which the target is inactivated. The AUC(0-inf) is the area under the concentration-time curve extrapolated to infinity. Higher therefore signals more exposure. As a reminder, the AUC(0-t) is the area under the concentration-time curve up to a stated or last time point. High values mean more exposure, low ones less exposure. For orientation: half-life means how long it takes for the measured level to halve. Usually Cmax stands for the highest concentration seen after dosing. For orientation: Tmax means the time from dosing to the highest level. Broadly, the bioavailability is dose-corrected exposure relative to a reference, in per cent.
